Measurements as given in ChEMBL document CHEMBL1201862, “PubChem BioAssay data set” (2004).
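48-hour exposure; five concentrations; linearly interpolated endpoints. GI50 marks 50% less growth.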 Active and inactive are the calls of the source. Cut-off read from the data, not from the text of the source: active = GI50 up to about 1.1 µM and inactive = higher.

How the values were obtained:
Assay in all cases: NCI tumour cell line growth inhibition, 48 h
DLD-1 = tested on: DLD-1
DMS-273 = tested on: DMS-273
HOP-18 = tested on: HOP-18
KM-20L2 = tested on: KM-20L2
M19-MEL = tested on: M19-MEL
RXF 631 = tested on: RXF 631
LXFL 529 = tested on: LXFL 529
XF498 = tested on: XF498
BT-549 = tested on: BT-549

Row | SMILES | GI50 (DLD-1) | GI50 (DMS-273) | GI50 (HOP-18) | GI50 (KM-20L2) | GI50 (M19-MEL) | GI50 (RXF 631) | GI50 (LXFL 529) | GI50 (XF498) | GI50 (BT-549)
1 | O=c1c2cc(Br)ccc2[nH]c(=S)n1-c1ccccc1 | > 100 µM (inactive) | > 100 µM (inactive) | > 100 µM (inactive) | > 100 µM (inactive) | > 100 µM (inactive) | > 100 µM (inactive) |  |  | 
2 | COc1ccc(-c2c(N)[n+]([O-])c3cc(C)c(C)cc3[n+]2[O-])cc1OC | 85.7 µM (inactive) | 99.3 µM (inactive) | 28.8 µM (inactive) | 54.3 µM (inactive) | 72.3 µM (inactive) | 20.4 µM (inactive) | 58.5 µM (inactive) | > 100 µM (inactive) | 
3 | CN(CC(=O)O)S(=O)(=O)c1ccc2ccccc2c1 | > 100 µM (inactive) | > 100 µM (inactive) | > 100 µM (inactive) | > 100 µM (inactive) | > 100 µM (inactive) | > 100 µM (inactive) | > 100 µM (inactive) | > 100 µM (inactive) | 
4 | CC(Oc1ccc2c(-c3ccc(Cl)cc3)cc(=O)oc2c1)C(=O)O (configuration not stated) | > 100 µM (inactive) |  | > 100 µM (inactive) | > 100 µM (inactive) |  | > 100 µM (inactive) | > 100 µM (inactive) | 2.35 µM (inactive) | 
5 | CC(C)(C)N/N=C(\C(=O)Nc1cccc(Cl)c1)C1C(=O)Nc2ccccc2[S+]1[O-] (configuration not stated) | > 100 µM (inactive) | > 100 µM (inactive) | > 100 µM (inactive) | > 100 µM (inactive) | > 100 µM (inactive) | > 100 µM (inactive) | > 100 µM (inactive) | > 100 µM (inactive) | 
6 | Nc1ccc2c(SCc3ccc([N+](=O)[O-])cc3)c3ccccc3nc2c1 | 2.39 µM (inactive) | 19.9 µM (inactive) | 13.5 µM (inactive) | 16.5 µM (inactive) | 13.2 µM (inactive) |  | 6.08 µM (inactive) | 14.6 µM (inactive) | 17.9 µM (inactive)
7 | O=c1/c(=C/c2ccccc2[N+](=O)[O-])sc2nnc(-c3cccnc3)n12 | > 100 µM (inactive) | > 100 µM (inactive) | > 100 µM (inactive) | > 100 µM (inactive) | > 100 µM (inactive) | > 100 µM (inactive) | > 100 µM (inactive) | > 100 µM (inactive) | 
8 | C/C=C(\N=C=S)C(=O)OC1C(COC(C)=O)OC([C@]2(O)CC(=O)C(N)=C(C(=O)O)C2=O)C(O)C1OC1CC(OC)C(O)([C@@H](C)OC(=O)[C@@H](C)CC)C(C)O1 (some centres not stated) | 10.9 µM (inactive) | 16.3 µM (inactive) | 16.8 µM (inactive) | 6.92 µM (inactive) | 2.6 µM (inactive) |  | 2.06 µM (inactive) | 2.49 µM (inactive) | 7.43 µM (inactive)
9 | O=c1n(-c2ccccc2)c(=O)n2n1C1C=CC2C2C(C1)C2(Cl)Cl (configuration not stated) | > 100 µM (inactive) | > 100 µM (inactive) |  | > 100 µM (inactive) | > 100 µM (inactive) | > 100 µM (inactive) | > 100 µM (inactive) | > 100 µM (inactive) | 
10 | [O-][n+]1c(-c2ccccc2)oc2ccccc21 | 7.82 µM (inactive) | 12.6 µM (inactive) | 6.44 µM (inactive) | 21.1 µM (inactive) | 1.89 µM (inactive) | 47 µM (inactive) | 9.04 µM (inactive) | 35.6 µM (inactive) | 
11 | COc1ccc2ccc3c(c2c1)CN1CCc2cc(OC)c(OC)cc2C1C3 (configuration not stated) | > 100 µM (inactive) | > 100 µM (inactive) | > 100 µM (inactive) | > 100 µM (inactive) |  | > 100 µM (inactive) | 66.2 µM (inactive) | 60.3 µM (inactive) | 
12 | [O-][S+]1c2ccccc2N=C(c2ccc3ccccc3c2)CC1C1=CC=CCC1 (configuration not stated) | 12.9 µM (inactive) | 19.2 µM (inactive) | 35.8 µM (inactive) | 19.5 µM (inactive) | 17.1 µM (inactive) | 17.2 µM (inactive) | 14.8 µM (inactive) | 17.1 µM (inactive) | 
13 | C=C(C)C(=O)/N=C(\N)NC#N | 68.9 µM (inactive) | 44 µM (inactive) | > 41.8 µM (inactive) | 105 µM (inactive) | 23.6 µM (inactive) | > 100 µM (inactive) | 63.4 µM (inactive) | 41.8 µM (inactive) | 14.8 µM (inactive)
14 | CCN(CC)CCNc1ccc2ncn3c4cc(O)ccc4c(=O)c1c23 | 3.76 µM (inactive) | 2.77 µM (inactive) |  | 3.7 µM (inactive) | 3.94 µM (inactive) | 2.1 µM (inactive) | 2.56 µM (inactive) | 2.9 µM (inactive) | 
15 | C=C(C)CC(C)(c1cc2ccccc2n1C)N1CCOCC1 (configuration not stated) | 60.5 µM (inactive) | 61 µM (inactive) | > 100 µM (inactive) | > 100 µM (inactive) | > 100 µM (inactive) | 42.4 µM (inactive) | 53.7 µM (inactive) | 50.6 µM (inactive) | 
16 | Cc1cc(C)c(-c2noc(-c3ccc(Cl)cc3)c2C2=NCCCN2)c(C)c1 | 35.8 µM (inactive) |  | 27.9 µM (inactive) | 21.9 µM (inactive) | 36.1 µM (inactive) | 25.1 µM (inactive) | 32.2 µM (inactive) | 12.2 µM (inactive) | 
17 | c1cnc2c(c1)-n1cccc1C1(CCOCC1)NN2 | > 100 µM (inactive) | > 100 µM (inactive) | > 100 µM (inactive) | > 100 µM (inactive) | > 100 µM (inactive) |  | > 100 µM (inactive) | > 100 µM (inactive) | 
18 | COC1/C=C\C=C(/C)C(=O)Nc2cc3nc4ccc(Br)cc4oc-3c(c2=O)CC(C)CC(OC)C(O)C(C)/C=C(\C)C1OC(N)=O (configuration not stated) | 0.0447 µM (active) | < 0.0216 µM (active) | 0.01 µM (active) | < 0.0181 µM (active) | 0.0383 µM (active) |  | < 0.0147 µM (active) | < 0.0202 µM (active) | 0.00429 µM (active)
19 | N#Cc1cccc(N2C(=O)C3C4C=CC(C3C2=O)C2C(=O)N(c3cccc(C#N)c3)C(=O)C42)c1 (configuration not stated) | > 46.5 µM (inactive) | 15.2 µM (inactive) | > 65.2 µM (inactive) | > 100 µM (inactive) |  | 24.7 µM (inactive) | > 46.5 µM (inactive) | 15.5 µM (inactive) | 17.7 µM (inactive)
20 | Fc1ccc2c(c1)cc1ccc3cccc4ccc2c1c34 | > 100 µM (inactive) | > 100 µM (inactive) | > 100 µM (inactive) | > 100 µM (inactive) | > 100 µM (inactive) | > 100 µM (inactive) | > 100 µM (inactive) | > 100 µM (inactive) | 
21 | CC(=O)Nc1ccccc1S(=O)(=O)c1ccccc1 | > 100 µM (inactive) | > 100 µM (inactive) | > 100 µM (inactive) | > 100 µM (inactive) | > 100 µM (inactive) | > 100 µM (inactive) | > 100 µM (inactive) | 79.6 µM (inactive) | 
22 | O=C(CC1C(=O)Nc2ccccc2S1(=O)=O)Nc1cc(Cl)ccc1Cl (configuration not stated) | 15 µM (inactive) |  |  | 15.6 µM (inactive) | 16.2 µM (inactive) | 28.4 µM (inactive) | 14.1 µM (inactive) | 14.1 µM (inactive) | 
23 | CSC[S+]([O-])C[C@H](CO)NC(=O)/C=C/c1c(C)[nH]c(=O)[nH]c1=O (some centres not stated) | 1.6 µM (inactive) | 1.43 µM (inactive) | 2.85 µM (inactive) | 0.979 µM (active) | 0.718 µM (active) | 2.58 µM (inactive) | 1.96 µM (inactive) | 0.214 µM (active) | 
24 | COC(=O)[C@@]12OC[C@]34[C@H]([C@@H](O)[C@@H]1O)[C@@]1(C)CC(=O)C(O)=C(C)[C@@H]1C[C@H]3OC(=O)[C@H](OC(=O)/C=C(\C)C(C)C)[C@@H]24 [BRUCEANTIN] | 0.02 µM (active) |  | 0.0265 µM (active) | 0.02 µM (active) | 0.02 µM (active) | 0.000314 µM (active) | 3.5e-05 µM (active) | 0.02 µM (active) | 0.02 µM (active)
